Among the data in PubChem BioAssay (NCI) are TGI values, retold here.

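Tested at 5 concentrations; 48 h exposure; 96-well plates; endpoints linearly interpolated, else capped at highest concentration. At the TGI there is no net growth.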 A value given as a limit tells only on which side of the number the result lay.

Among the test systems are M14 melanoma; COLO 205 colon; A549 NSCLC; UACC-62 melanoma; RXF 393 renal; SN12C renal; IGROV1 ovarian; U251 CNS.
Holding throughout (experiment): inhibition of tumour cell growth, NCI panel, 48 h

Regarding `COc1ccc(N2C(=O)C3ON(C(C(N)=O)c4ccccc4)C(c4ccc(-c5ccccc5)cc4)C3C2=O)cc1` (stereo not drawn), the TGI in the test on M14 melanoma, in the test on COLO 205 colon, with A549 NSCLC, with UACC-62 melanoma, in the test on RXF 393 renal and in the test on SN12C renal was > 50 µM throughout. In addition, the TGI in the test on IGROV1 ovarian and in the test on U251 CNS was > 50 µM throughout.
For the molecule `CC1(C2(C)OC(=O)c3ccccc32)OC(=O)c2ccccc21` (stereo not drawn), the TGI in the test on M14 melanoma, in the test on COLO 205 colon, in the test with A549 NSCLC, with UACC-62 melanoma, in the test on RXF 393 renal and in the test on SN12C renal was > 100 µM throughout. Besides, the TGI in the test on IGROV1 ovarian and with U251 CNS was > 100 µM in each case.
For `O=C1CCC[C@]2(CCC[C@@H](O)C2)N1`, the TGI in the test on M14 melanoma, with COLO 205 colon, with A549 NSCLC, with RXF 393 renal, in the test with SN12C renal and in the test on IGROV1 ovarian was > 100 µM throughout.
For the molecule `Cc1ccc(S(=O)(=O)NN=C2CCCCCCCCCCC2)cc1`, the TGI in the test on M14 melanoma, with COLO 205 colon, with A549 NSCLC, in the test with UACC-62 melanoma, in the test with RXF 393 renal and with SN12C renal was > 100 µM in each case. The TGI with IGROV1 ovarian and in the test with U251 CNS was > 100 µM in each case.
For `CCCCC(=O)Nc1ccc2cc(C(=O)OC)c(ON3C(=O)c4ccccc4C3=O)nc2n1`, the TGI was 43.3 µM with M14 melanoma; > 100 µM in the test with COLO 205 colon; > 100 µM in the test on A549 NSCLC; 52.3 µM in the test with RXF 393 renal; > 100 µM with SN12C renal; 41 µM in the test on IGROV1 ovarian. Moreover, in the test on U251 CNS, the TGI is > 100 µM.
For the molecule `CC(C)(C)c1ccc(-c2nc3ccc([N+](=O)[O-])cc3c(=O)o2)cc1`, the TGI in the test with M14 melanoma was > 100 µM; in the test with COLO 205 colon, 71.9 µM; in the test on A549 NSCLC it was > 100 µM; with UACC-62 melanoma, 79.3 µM; in the test with RXF 393 renal it was 96.7 µM; in the test on SN12C renal, > 100 µM. The figures for the TGI in the test with IGROV1 ovarian and with U251 CNS were > 100 µM and 43.4 µM, respectively.
`O=C1C(/C=C/c2ccc(Cl)cc2)=NNC2N1N=C1NC(=O)C3(NN12)c1ccccc1-c1ccccc13` (stereo not drawn): the TGI in the test with M14 melanoma, in the test with COLO 205 colon, with A549 NSCLC, in the test with UACC-62 melanoma, in the test on RXF 393 renal and in the test on SN12C renal was > 100 µM each time. Further, the TGI with IGROV1 ovarian and with U251 CNS was > 100 µM in each case.
With `COc1ccc(C2SCC(=O)N2c2ccc(-n3c(-c4ccccc4)nc4ccccc4c3=O)cc2)cc1OC` (stereo not drawn), the TGI in the test with M14 melanoma, in the test on COLO 205 colon, in the test on A549 NSCLC, in the test with UACC-62 melanoma, with SN12C renal and with IGROV1 ovarian was > 100 µM in each case. The TGI with U251 CNS was > 100 µM.
For the molecule `O=C(CC(=O)N1N=C(N2CCCCC2)CC1c1ccccc1)Nc1ccc(Cl)cc1` (stereo not drawn), the TGI with M14 melanoma, in the test with COLO 205 colon, with A549 NSCLC, in the test on UACC-62 melanoma, in the test on SN12C renal and with IGROV1 ovarian was > 100 µM in each case. For the same molecule, the TGI in the test on U251 CNS is > 100 µM.
For `CN(NC(=O)CCCl)C1=NCCN1`, the TGI in the test with M14 melanoma, in the test on COLO 205 colon, in the test on A549 NSCLC, in the test on UACC-62 melanoma, in the test on RXF 393 renal and with SN12C renal was > 100 µM in each case. Besides, the TGI in the test with IGROV1 ovarian and in the test on U251 CNS was > 100 µM throughout.
Turning to `COc1cc(CCCOC(=O)/C=C/c2ccc(O)c(O)c2)cc(O)c1O`, the TGI was > 100 µM in the test with M14 melanoma; > 100 µM in the test on COLO 205 colon; > 100 µM in the test on A549 NSCLC; 85.1 µM in the test on UACC-62 melanoma; > 100 µM with RXF 393 renal; > 100 µM in the test with SN12C renal. Moreover, the TGI in the test on IGROV1 ovarian and with U251 CNS was > 100 µM throughout.
As to `CC(C)NC(=O)CN1CCN(C2=CC(=O)c3c(O)ccc(O)c3C2=O)CC1`, the TGI in the test on M14 melanoma was 22.3 µM; with COLO 205 colon, 9.64 µM; with A549 NSCLC, 35.2 µM; in the test with UACC-62 melanoma it was 13.3 µM; with RXF 393 renal, 33.2 µM; in the test on SN12C renal, 29.1 µM. In addition, the TGI in the test with IGROV1 ovarian came out at 28.4 µM; with U251 CNS, 35.9 µM.
As for `CN(C)c1ccc(/C=C(\C#N)C(N)=C(C#N)C#N)cc1`, the TGI in the test on M14 melanoma, with COLO 205 colon, with A549 NSCLC, with UACC-62 melanoma, in the test with RXF 393 renal and in the test on SN12C renal was > 100 µM throughout. In addition, the TGI in the test with IGROV1 ovarian and with U251 CNS was > 100 µM in each case.
Regarding `CCCc1c(OC)c(=O)c2c(OC)cc(OC)c3c4c(OC)cc(OC)c5c(=O)c(OC)c(CCC)c(c1c23)c54`, the TGI with M14 melanoma turned out to be 30.6 µM; with COLO 205 colon, 27.2 µM; in the test with A549 NSCLC, 43.7 µM; with UACC-62 melanoma, 24.1 µM; with RXF 393 renal, 69.1 µM; in the test with SN12C renal, 50.4 µM. In addition, the TGI worked out at 34.8 µM in the test on IGROV1 ovarian and 29.6 µM with U251 CNS.
`COCC1OC(OC2C3=C(C(C)C)CCC3(C)/C=C3\C(CCC3(O)COC)C(C)C2O)C(O)C2OC3OC12OC3(C)C1CO1` (stereo not drawn): the TGI in the test on M14 melanoma, in the test on COLO 205 colon, in the test with A549 NSCLC, with UACC-62 melanoma, in the test with RXF 393 renal and in the test with SN12C renal was > 100 µM in each case. Besides, the TGI is > 100 µM with IGROV1 ovarian and 98.8 µM in the test on U251 CNS.
In the case of `N#CCCN(CCC#N)c1ccc(C(N=Nc2ccccc2)=Nc2ccccc2)cc1`, the TGI with M14 melanoma, in the test on COLO 205 colon, in the test on A549 NSCLC, in the test on UACC-62 melanoma, in the test on RXF 393 renal and in the test with SN12C renal was > 100 µM in each case. Moreover, the TGI in the test on IGROV1 ovarian and in the test on U251 CNS was > 100 µM each time.
